Several values for one entry are separate records, joined by “and”; a condition that tells them apart may be missing. Equal values may be shown once.
How the values were obtained:
[1] = biological target: T1, androgen receptor (rat ventral prostate cytosol) (Rattus norvegicus, UniProt P15207); test: Androgen Receptor Binding Using Rat Ventral Prostate Cytosol; conditions: rat cytosol
T1 construct: from tissue; host or cells: ventral prostate of castrated male Sprague Dawley or Wistar rats, cytosol
T1 sequence (P15207 1-902): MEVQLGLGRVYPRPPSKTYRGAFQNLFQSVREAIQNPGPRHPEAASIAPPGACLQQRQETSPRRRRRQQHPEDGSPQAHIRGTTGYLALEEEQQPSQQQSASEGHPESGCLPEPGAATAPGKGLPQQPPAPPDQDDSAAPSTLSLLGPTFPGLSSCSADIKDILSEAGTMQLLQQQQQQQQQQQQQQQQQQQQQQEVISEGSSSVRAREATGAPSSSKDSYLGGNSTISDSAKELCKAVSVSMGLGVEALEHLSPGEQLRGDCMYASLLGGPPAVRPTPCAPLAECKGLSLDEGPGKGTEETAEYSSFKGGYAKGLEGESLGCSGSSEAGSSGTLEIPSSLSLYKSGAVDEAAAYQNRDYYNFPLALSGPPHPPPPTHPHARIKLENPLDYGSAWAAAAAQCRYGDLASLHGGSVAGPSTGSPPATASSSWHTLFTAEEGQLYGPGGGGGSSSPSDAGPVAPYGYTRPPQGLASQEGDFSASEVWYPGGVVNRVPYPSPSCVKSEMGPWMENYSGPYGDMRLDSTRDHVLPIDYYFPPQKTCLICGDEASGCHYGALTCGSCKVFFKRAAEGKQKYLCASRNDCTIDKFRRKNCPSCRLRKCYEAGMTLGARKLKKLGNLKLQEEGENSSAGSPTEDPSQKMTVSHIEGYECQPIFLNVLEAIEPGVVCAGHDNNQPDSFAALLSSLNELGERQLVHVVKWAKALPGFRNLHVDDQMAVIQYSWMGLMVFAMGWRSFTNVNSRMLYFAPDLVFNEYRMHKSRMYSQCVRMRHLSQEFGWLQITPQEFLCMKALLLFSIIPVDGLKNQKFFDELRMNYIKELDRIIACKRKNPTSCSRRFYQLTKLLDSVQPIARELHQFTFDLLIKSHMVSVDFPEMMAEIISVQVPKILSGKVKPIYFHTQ
Procedure: The assay was run on a 96 well plate with each well filled with a total reaction volume 150 μL, of a solution containing 5 pmol androgen receptor LBD (Panvera) or 30 μL of freshly prepared rat cytosol, 0.5 nM [^3H] […] (TED buffer contains 10 mM Tris.HCl pH 7.4, 1 mM sodium molybdate, 1.5 mM EDTA, 1 mM DTT and 10% (v/v) glycerol.)
On day one, the solution containing receptor, tracer and TED buffer was distributed into a 96 well plate. Diluted test compound or control vehicle was then added to individual wells and the plate incubated at 4° C. overnight.
On day two, to each well was then added 20 μL human γ-globulin (ICN 823102), prepared at 25 mg/ml in TE pH 8.0, and 55 μL 40% polyethylene glycol 8000 (JT Baker U222-08), prepared in TE pH 8.0. The plate was incubated at 4° C. for 60 minutes. During incubation, the harvester was rinsed with 10% PEG 8000, prepared in TE pH 8.0, and a GF/C Unifilter-96 was pre-wet with 10% PEG. The binding reaction was filtered, the retentate was washed three times with 10% PEG and dried under vacuum for a couple of minutes, then dried at 50° C. for 5 min and the plate was bottom sealed. Next, 25 μL of Microscint-20 (Packard) was added to the filter wells and the plate was top sealed. The plate wells were then counted on a TopCount (Packard).
Rat Prostate Cytosol Preparation:
Male Sprague Dawley or Wistar rats (Charles River, 200-300 g) were used for each preparation. The day before preparing the cytosol, the rats were castrated using standard surgical procedures.
The rats were euthanized by carbon dioxide asphyxiation. The rat prostates were quickly removed and placed on ice in pre-chilled, pre-weighed 50 mL plastic tubes. No more than five prostates were placed into one tube. The tubes were then weighed and the prostate tissue wet weights calculated.
To the chilled prostate tissue was then added […] of chilled homogenization buffer. The homogenization buffer was freshly prepared by mixing 10 mM Tris.HCl, pH 7.4, 1 mM sodium molybdate, 1.5 mM EDTA, 1 mM dithiothreitol, 10% (v/v) glycerol and 1% protease inhibitor cocktail (Sigma P 8340).
The prostate tissue was homogenized in a cold room using a pre-chilled Polytron PT3000 homogenizer (Brinkmann). Homogenization was performed at a speed setting of 20, three times for 10 sec bursts. The tubes containing the prostate tissue was kept on ice while homogenizing. The homogenate was allowed to rest on ice for 20 sec between bursts.
The homogenate was then placed into pre-chilled 3 mL polycarbonate ultracentrifuge tubes and centrifuged in the TLA-100 rotor of a TL-100 ultracentrifuge for 12 min at 100,000 rpm at 4° C. The resulting supernatant was stored in 1 mL aliquots at −80° C. until needed.
Binding to the androgen receptor was determined according to the protocol described in Example 86 using the above prepared rat cytosol.
% Inhibition was determined by testing dilutions of the test compound (usually duplicates of 10 μM) in the binding assay. Counts per well were measured and percents of inhibition determined. […] Counts per well were measured and IC50s determined by linear regression.

[2] = biological target: T2, androgen receptor (adenovirus AdEasy+rAR in COS-7 cells) (Rattus norvegicus, UniProt P15207); test: COS-7 Whole-Cell Androgen Receptor Binding Assay, Adenovirus Transduction; conditions: COS binding; 3000 nM unless otherwise noted
T2 construct: expressed in transfected cells
T2 sequence (P15207 1-902): T1 sequence (P15207 1-902)
Procedure: COS-7 cells were plated in 96-well plates at 20,000 cells per well, in a solution of DMEM/F12 (GIBCO) containing 10% (v/v) charcoal-treated fetal bovine serum (Hyclone) and lacking phenol red. The cells were then incubated overnight at 37° C. in 5% (v/v) humidified CO2.
Test compound solutions were prepared by diluting the test compound in 100% (v/v) DMSO, if necessary.
Next, 1 mL of DMEM/F12 lacking phenol red was pipetted into each of the wells of a 2-mL 96-well assay block. […] The wells were carefully mixed by pipette.
In a 15 mL or 50 mL sterile centrifuge tube, a dilution in DMEM/F12 of the adenovirus AdEasy+rAR at a moi of 1:50 per well was prepared.
The medium was removed from the 96-well plates by inversion and the plates dried very briefly, inverted, on a sterile towel. As soon as possible after medium removal, 40 μL of the diluted test compound was added to each well, in duplicate. […] The plates were then incubated for 48 hours at 37° C. in 5% (v/v) humidified CO2.
The medium was removed from the above incubated plates by inversion and dried. Each well was then washed with 0.35 mL of 1×PBS. The PBS was then removed from the plates by inversion and the plates dried.
To each well was then added 50 μL of 0.5% (v/v) Triton X-100 (Sigma) in 1×PBS and the plates placed on a rotary shaker for 5 min. The contents of each well were then transferred to an OptiPlate-96 (Packard) scintillation plate. To each well was then added 0.2 mL of Microscint-20 (Packard) and the wells counted on a TopCount (Packard).
[…] Counts per well were measured and percents of inhibition determined. […] Counts per well were measured and IC50s determined by linear regression.

[3] = biological target: T3, androgen receptor (adenovirus AdEasy+rAR in L929 cells) (Rattus norvegicus, UniProt P15207); test: L929 Androgen Receptor Functional Assay, Adenovirus Transduction; type: cell-based; conditions: L929 agonist testing
T3 construct: expressed in transfected cells
T3 sequence (P15207 1-902): T1 sequence (P15207 1-902)
Summary of the method: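 L929 cells in phenol red-free, charcoal-stripped serum medium transduced with AdEasy+rAR (moi 1:500) and exposed 48 h at 37 °C to compound alone (agonist mode) or with R1881 (antagonist mode; 2.5 nM as the 2.5× dilution).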

[4] = test system: testosterone-enhanced ventral prostate and seminal vesicle weights in castrated male Sprague Dawley rats; test: Ventral Prostate and Seminal Vesicle Weight In Vivo Assay; parameters: species or system rat; conditions: immature castrated rats; once daily for five days, usually orally at 40 mg/kg, with testosterone propionate 2 mg/kg s.c.
Summary of the method: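 Immature (~50 g) castrated Sprague Dawley rats dosed once daily for five days with compound (usually oral, 40 mg/kg, cyclodextrin or methylcellulose vehicle) plus testosterone propionate 2 mg/kg s.c. Wet ventral prostate and seminal vesicle weights taken on day six; activity judged by prostate weight or body-weight-adjusted % inhibition.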

Structure (SMILES) | inhibition at 1 µM ([1]; concentration 1000 nM) | IC50 ([1]; read-out: IC50) | % Inhibition [2] | % Activity ([3]; 3000 nM, 3 µM) | active / inactive (inhibition of testosterone-enhanced prostate weight) [4] | inhibition at 3 µM [2] | % Activity ([3]; 3000 nM) | % Activity ([3]; @ 8000 nM)
O=[N+]([O-])c1cc2cc(C3(O)CCN(Cc4ccc(Cl)c(Cl)c4)CC3)[nH]c2cc1C(F)(F)F [compound 43] | 5.8% | 9.1 µM |  |  |  |  |  | 
CC(O)(CSCC(F)(F)F)c1cc2cc([N+](=O)[O-])c(C(F)(F)F)cc2[nH]1 (single isomer, unassigned) [compound 202] |  |  | 50% | 1% | active |  |  | 
CCC(O)(CSCC(F)(F)F)c1cc2cc(F)c(C(F)(F)F)cc2[nH]1 (stereo not shown) [compound 194] |  |  |  |  | inactive | 80% | 2% | 
CSCC(C)(O)c1cc2cc(Cl)c(C(F)(F)F)cc2[nH]1 (stereo not shown) [compound 135] |  |  |  |  | inactive | 98% | 0% | 
CC[S+]([O-])C[C@](C)(O)c1cc2cc([N+](=O)[O-])c(C(F)(F)F)cc2[nH]1 (stereo in doubt) [Compound #155, 1-Ethanesulfinyl-2-(5-nitro-6-trifluoromethyl-1H-indol-2-yl)-propan-2-ol] |  |  |  |  | inactive | 35% | 2% | 
CCSCC(C)(O)c1cc2cc([N+](=O)[O-])c(C(F)(F)F)cc2n1S(C)(=O)=O (stereo not shown) [compound 141] |  |  |  |  | inactive | 42% | 0% | 
CC(O)(CCS(C)(=O)=O)c1cc2cc([N+](=O)[O-])c(C(F)(F)F)cc2[nH]1 (stereo not shown) [compound 49] |  |  |  |  | inactive | 30% | 2% | 
CC(O)(CSCC(F)(F)F)c1[nH]c2cc(C(F)(F)F)c([N+](=O)[O-])cc2c1I (stereo not shown) [compound 213] |  |  |  |  | active | 71% |  | −1 @ 8000 nM %
CC(O)(CS(C)(=O)=O)c1cc2cc([N+](=O)[O-])c(C(F)(F)F)cc2[nH]1 (stereo not shown) [compound 140] |  |  | 51.5% |  | active |  | 0% | 
CC(O)(CSCC(F)(F)F)c1cc2cc(Cl)c(C(F)(F)F)cc2[nH]1 (stereo not shown) [compound 190] |  |  |  |  | active | 100% | 1% | 
COc1ccc(SCC(C)(O)c2cc3cc(Cl)c(C(F)(F)F)cc3[nH]2)cc1 (stereo not shown) [compound 131] |  |  |  |  | inactive | 84% | −5% | 
CCS(=O)(=O)C[C@](C)(O)c1cc2cc([N+](=O)[O-])c(C(F)(F)F)cc2[nH]1 [Compound #156, 1-Ethanesulfonyl-2-(5-nitro-6-trifluoromethyl-1H-indol-2-yl)-propan-2-ol] |  |  | 52% |  | inactive | 42% | 2% | 
CCCS(=O)(=O)CC(C)(O)c1cc2cc([N+](=O)[O-])c(C(F)(F)F)cc2[nH]1 (stereo not shown) [compound 177] |  |  |  |  | active | 90% | 2% | 
CCSCC(C)(O)c1cc2cc([N+](=O)[O-])cc(C(F)(F)F)c2[nH]1 (stereo not shown) [compound 212] |  |  |  |  | active | 86% | −3% | 
CCSCC(C)(O)c1cc2cc([N+](=O)[O-])c(C(F)(F)F)cc2n1C (single isomer, unassigned) [compound 231] |  |  | 78% | 0% and −1% | active | 73% |  | 
CCS(=O)(=O)CC(C)(O)c1cc2cc(C#N)c(C(F)(F)F)cc2[nH]1 (single isomer, unassigned) [Compound #222, 2-(2-Ethanesulfonyl-1-hydroxy-1-methyl-ethyl)-6-trifluoromethyl-1H-indole-5-carbonitrile] |  |  |  |  | active | 42% |  | 0 @ 8000 nM %
CCSCC(C)(O)c1[nH]c2cc(C(F)(F)F)c(C#N)cc2c1C (single isomer, unassigned) [Compound #234, 2-(2-Ethylsulfanyl-1-hydroxy-1-methyl-ethyl)-3-methyl-6-trifluoromethyl-1H-indole-5-carbonitrile] |  |  | 71% | −1% | inactive |  |  | 
CCSCC(C)(O)c1cc2cc([N+](=O)[O-])c(C(F)(F)F)cc2n1C (racemic) [compound 165] |  |  | 69% | 1% | active |  |  | 

— patent US8394971B2, “Indole derivatives as selective androgen receptor modulators (SARMS)” (Janssen Pharmaceutica N.V., priority 2004, dated 2013)
